Assay results as given in patent US8471009B2, “(EN) 2-alkylamino-3-arylsulfonyl-cycloalcano [e OR d] pyrazolo [1,5-A]pyrimidines / antagonists of serotonin 5-HT6 receptors, methods for the production and the use thereof” (priority 2008, dated 2013).

Columns and labels:
serotonin 5-HT6 receptor = target: T1, serotonin 5-HT6 receptor (Homo sapiens, UniProt P50406); assay: Functional assay: antagonism of serotonin-induced intracellular cAMP (LANCE cAMP) in HEK 293 cells expressing 5-HT6 receptor; format: cell-based; conditions: HEK 293 cells with expressed 5-HT6 receptor, read-out: IC50 of serotonin 5-HT6 receptor inhibition in the setting of functional assay
T1 construct: expressed in transfected cells; host or cells: HEK 293
Method: Determination of antagonistic activity of compounds of general formula 1 towards 5-HT6 receptors. Compounds of general formula 1 were tested for their ability to prevent 5-HT6 receptors activation by serotonin. HEK 293 cells (cells of human embryo's kidney) with artificially expressed 5-HT6 receptor, activation of which by serotonin leads to increasing the concentration of intracellular cAMP were used. The content of intracellular cAMP was determined using reagent kit LANCE cAMP (PerkinElmer) according to the method described by the manufacturer of the kit [http://las.perkinelmer.com/content/Manuals/MAN_LANCEcAMP384KitUser.pdf]. Effectiveness of compounds was estimated by their ability to reduce the content of intracellular cAMP induced by serotonin. Table 3 presents ICso values of serotonin 5-HT6 receptor inhibition by antagonists of general formula 1 and 2 in the setting of functional assay. The data given testify their high antagonistic activity.

[1] = test system: mice behavior in elevated plus maze; assay: Mice Behavior in the Elevated Plus Maze (anxiolytic action); format: in vivo; conditions: five minutes
From the text: Anxiolytic (tranquilizing) action of compounds of general formulas 1 and 2 in the test “Mice Behavior in the Elevated Plus Maze”. The length of each arm of the maze is 30 cm, width is 5 cm, and height of walls is 15 cm. Two opposite arms are closed from both sides and end faces by transparent walls, the other two arms are lit and opened. A mouse was placed in the center of maze, and for the next five minutes the number of entries into opened and closed arms and the time spent in each type of arms was registered. […] The animals usually avoid opened arms (the preference index is between 0.2 and 0.3). Compounds with tranquilizing action increase this index up to 0.5-0.6 or even more and reduce the number of defecations without changing the overall motion activity of the mice (the total number of entries to the arms).

[2] = target: T2, recombinant human 5-HT6 receptors (Homo sapiens, UniProt P50406); assay: Competitive radioligand binding ([3H] Lysergic acid diethylamide) to membranes of HeLa cells expressing recombinant human 5-HT6 receptors; conditions: 1.5 nM [3H] Lysergic acid diethylamide, 120 min, 37° C., HeLa cell membranes; for IC50: read-out: IC50 of serotonin 5-HT6 receptor inhibition in the setting of competitive binding; for Ki: read-out: Ki of serotonin 5-HT6 receptor inhibition in the setting of competitive binding
T2 construct: expressed in transfected cells; host or cells: HeLa (membrane preparation)
Method: Activity determination of serotonin 5-HT6 receptor antagonists of the general formula 1 in the setting of competitive binding to serotonin 5-HT6 receptors.
Screening of disclosed compounds for their potential ability to interact with serotonin 5-HT6 receptors was carried out by method of radioligand binding. For this purpose membrane species were prepared from expressing recombinant human 5-HT6 receptors HeLa cells by means of their homogenization in glass homogenizer with subsequent separation of plasmatic membranes from cell nucli, mitochondria's and cell wreckages by differential centrifugation. […] Mol Pharmacol. 43:320-327, 1993]. In the preferred embodiment membrane preparations were incubated with radioligand (1.5 nM [^3H] Lysergic acid diethylamide) without and in the presence of investigated compounds for 120 min at 37° C. in medium consisting of […], pH 7.4, 150 mM NaCl, 2 mM Ascorbic Acid, 0.001% BSA. After incubation the samples were filtered in vacuo on glass-microfiber filters G/F (Millipor, USA), filters were washed three times with cold solution of medium and radioactivity was measured by scintillation counter MicroBeta 340 (PerkinElmer, USA). Nonspecific binding which made up 30% of overall binding was determined by incubation of membrane preparations with radioligand in the presence of 5 μM Serotonin (5-HT). Methiothepin was used as positive control. Binding of tested compounds with the receptor was determined by their ability to displace the radioligand and expressed in percent of displacement. The percent of displacement was calculated according to the following equation:
[formula] wherein: TA—was overall radioactivity in the presence of radioligand only, CA—was radioactivity in the presence of radioligand and tested compound and NA—was radioactivity in the presence of radioligand and Serotonin (5 μM).
Table 4 presents the test results for some serotonin 5-HT6 receptor antagonists of general formulas 1 and 2 in the setting of competitive binding to serotonin 5-HT6 receptors, testifying their high activity towards serotonin 5-HT6 receptors.

[3] = test system: memory disturbed by MK-801; assay: Passive Avoidance of mice in the Shuttle Chamber, memory disturbed by MK-801; format: in vivo; conditions: MK-801 0.1 mg/kg, injected 30 minutes before training
Method: The testing was carried out as in example 7. On the first day of testing 30 minutes before training the mice were injected intraintestinally with physiological solution of MK-801 (0.1 mg/kg). Concurrently, physiological solution of MK-801 in combination with active ingredient 1.1(1) was injected intraintestinally to independent groups of mice before training.

[4] = test system: memory disturbed by Scopolamine; assay: Passive Avoidance of mice in the Shuttle Chamber, memory disturbed by Scopolamine; format: in vivo; conditions: aged male BALB/c mice; Scopolamine 0.3 mg/kg, injected 30 minutes before training; retest in 22-24 hours
Method: A shuttle chamber (Ugo Basile, Italy) consisted of two sections was used. The walls of one section were opaque while the other section had transparent cover. The sections were connected through a hole which could be overlapped by vertical door. The floor was made of transverse metal bars on which DC current impulses could be fed. Experiments were carried out in aged male mice of BALB/c line weighing 20-24 grams.
On the first day of testing 30 minutes before training mice were injected intraintestinally with physiological solutions of Scopolamine (0.3 mg/kg) or Scopolamine in combination with active ingredient 1.1(1). Each group consisted of at least 8 animals. Animals were placed in light section, and latent period of the first entry into dark chamber was registered. Then vertical door was closed and the animal was punished by 0.6 mA DC current for 3 seconds. After that the animal was taken back to its homecage. In 22-24 hours the same animal was placed again in light section of the shuttle chamber and latent period of its first entry into dark section, the total time of its stay in light section and the number of entries into dark section, was registered. Each monitoring lasted for 5 minutes.
Testing was carried out during the day time in isolated laboratory using white noise at level of about 70 decibel above human hearing threshold. […]

T2 sequence (P50406 whole entry): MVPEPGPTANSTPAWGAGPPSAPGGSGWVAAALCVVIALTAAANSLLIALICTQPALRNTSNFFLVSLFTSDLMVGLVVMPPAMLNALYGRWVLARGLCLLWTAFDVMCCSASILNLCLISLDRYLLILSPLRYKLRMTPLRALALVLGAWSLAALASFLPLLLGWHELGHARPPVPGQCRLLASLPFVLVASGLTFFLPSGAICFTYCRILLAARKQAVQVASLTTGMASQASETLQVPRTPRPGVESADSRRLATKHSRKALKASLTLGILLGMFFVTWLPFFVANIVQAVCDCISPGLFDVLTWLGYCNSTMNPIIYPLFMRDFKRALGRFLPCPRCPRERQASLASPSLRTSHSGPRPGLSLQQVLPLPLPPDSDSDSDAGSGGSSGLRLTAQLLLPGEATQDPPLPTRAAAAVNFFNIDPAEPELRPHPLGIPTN
T1 sequence (P50406 whole entry): as above

Row | IC50 (serotonin 5-HT6 receptor) [pM] | IC50 [2] [pM] | Ki [2] [pM] | Compound | Anxiolytic (tranquilizing) action [1] | Nootropic action (enhancement of memory disturbed by MK-801) [3] | Nootropic action (enhancement of memory disturbed by Scopolamine) [4]
1 | 7000 | 436 | 202 | CNc1nn2c3c(c(C)nc2c1S(=O)(=O)c1ccccc1)CCC3 [1.1(3), 5-methyl-2-methylamino-3-(phenylsulfonyl)-7,8-dihydro-6H-cyclopenta[e]pyrazolo[1,5-a]pyrimidine] |  |  | 
2 |  | 1050 | 490 | CNc1nn2c3c(c(C)nc2c1S(=O)(=O)c1ccccc1)CCCC3 [1.2(3), 5-methyl-2-methylamino-(3-phenylsulfonyl)-6,7,8,9-tetrahydrocyclohexa[e]pyrazolo[1,5-a]pyrimidine] |  |  | 
3 | 15500 | 551 | 256 | CNc1nn2c(C)c3c(nc2c1S(=O)(=O)c1ccccc1)CCCC3 [2(2)] |  |  | 

More lines, now with the values behind:

Row | Compound | IC50 (serotonin 5-HT6 receptor) [pM] | IC50 [2] [pM] | Ki [2] [pM] | Anxiolytic (tranquilizing) action [1] | Nootropic action (enhancement of memory disturbed by MK-801) [3] | Nootropic action (enhancement of memory disturbed by Scopolamine) [4]
4 | CNc1nn2c3c(cnc2c1S(=O)(=O)c1ccccc1)CCC3 [1.1(1), 2-methylamino-3-(phenylsulfonyl)-7,8-dihydro-6H-cyclopenta[e]pyrazolo[1,5-a]pyrimidine] | 4800 | 157 | 73 | anxiolytic (tranquilizing) action which is comparable with the activity of Buspirone and Lorasepam | nootropic effect | nootropic action
5 | CNc1nn2c3c(cnc2c1S(=O)(=O)c1ccccc1)CCCC3 [1.2(1), 2-methylamino-3-(phenylsulfonyl)-6,7,8,9-tetrahydrocyclohexa[e]pyrazolo[1,5-a]pyrimidine] | 4400 | 241 | 112 |  |  | 
6 | CNc1nn2cc3c(nc2c1S(=O)(=O)c1ccccc1)CCCC3 [2(1)] | 7500 | 1070 | 499 |  |  | 
